6 compounds from patent publication EP0540859B1, “Anthracycline prodrugs” (Bristol-Myers Squibb Company, priority 1987, dated 1989) can be followed below.

Data set [1] concerns H2981 tumor cells.
Data set [2] can be described thus: Stability of aqueous solutions of etoposide prodrugs. The format is physicochemical. The method, then: For example, either AP alone or the antibody-enzyme conjugate, L6-AP, produced as described above (final AP concentration 5 µg/ml) were added to a solution of etoposide-4'-phosphate (0.1 mM) in Tris buffer (100 mM) containing MgCl2 (1 mM) and ZnCl2 (0.1 mM) at pH 7.0. The reaction was monitored by HPLC using an IBM C-18 column (3 µ, 4.5 x 100 mm) and 50% aqueous methanol as eluant (0.5 ml/min, monitored at 254 nm). […] Aqueous solutions of etoposide phosphate or etoposide thiophosphate were stable for at least 8 hours at room temperature and for several days at 4°C.

Data set [3] relates to H3347 tumor cells. Nature of the data set: Clonogenic cytotoxicity (colony inhibition) assay. The format is cell-based. Particulars: Homo sapiens, 15 hours drug exposure, colonies counted 7-10 days later. The method, then:
The clonogenic cytotoxicity assay we used was the colony inhibition assay described by I. Hellstrom et al., "Colony Inhibition And Cytotoxicity Assays," in In Vitro Methods In Cell-Mediated Immunity, Bloom and Glade (ed.s), pp.- 409-14 (1971). The cells used to detect cytotoxicity were the H3347 tumor cells described above. Both the L6-AP and 96.5-AP conjugates were tested for their ability to convert prodrug into the free drug.
Briefly, the H3347 cells (10^6/ml) were suspended in IMDM growth media (containing 10 µg/ml of each immunoconjugate based on antibody concentration) and incubated for 30 min at 37°C. The cells were washed twice, resuspended in IMDM, and the drug or prodrug in medium was added. Incubation at 37°C was continued for 15 hours. After washing twice, the cells were plated out and the number of colonies (>8 cells/colony) were counted 7-10 days later.

In data set [4] the test system is H3347 tumor cells. Nature of the data set: 3H-thymidine uptake assay on H3347 cells. The format is cell-based, human.
The next data set relates to H3347 tumors. The experiment in a line: In vivo antitumor effect, conjugate/etoposide phosphate, s.c. H3347 tumors. Conditions: for antitumor effect on tumor growth: Figure 11, conjugates i.p. 18-24 h prior to EP; for tolerability in the animals: nude mice, maximum tolerated doses; for RESPONSE complete / RESPONSE partial / RESPONSE progression / RESPONSE stable: number of 16 tumors in each group, 23 days after tumor implant. Also noted: species or system nude mice. The procedure:
First, Balb/C nu/nu female mice (4-6 wk old) (obtained from Life Sciences, St. Petersburg, Florida) were injected with 10^7 H3347 tumor cells subcutaneously (s.c.) in the left and right hind flanks. The tumor cells were obtained from in vitro cultures that had been suspended by treatment for 2 min with trypsin (0.5 g/l) and EDTA (0.2 g/l). The cells were washed twice with IMDM and incubated for 1 h at 37°C in IMDM with 10% fetal calf serum. The cells were washed, suspended in PBS, and kept at 4°C prior to injection. Both the localization and therapy studies described herein were initiated when the tumors reached an average size of 225 mm^3.
Therapy experiments were performed on nude mice that had s.c. tumors approximately 225 mm^3 in volume. The conjugates, L6-AP and 1F5-AP, were administered (i.p.) 18-24 h prior to treatment with EP. Tumor growth was compared to that in untreated mice and in mice treated with maximum tolerated doses of etoposide or EP alone.
More particularly, a group of 8 nude mice with bilateral H3347 tumors was treated with either etoposide (0.2 ml containing 1.2 mg etoposide in 2:3 DMSO:H2O) or EP (0.2 ml containing 2 mg EP in H2O) alone or with L6-AP (0.1 ml containing 300 µg antibody in PBS) or 1F5-AP (0.1 ml containing 300 µg antibody in PBS) followed by EP treatment Each experiment contained a control group of mice that was untreated. Tumor volumes were estimated at various days post tumor implant, using the formula: ([(perpendicular width)^2 /2)] X longest length [formula]

A further data set relates to Alkaline phosphatase. The experiment in a line: Hydrolysis of etoposide phosphate prodrugs by AP or L6-AP conjugate (HPLC). Particulars: for hydrolysis by alkaline phosphatase, relative rate: Figure 5.
The next data set deals with penicillin V amidase. Nature of the data set: Hydrolysis of APO to adriamycin by PVA or L6-PVA conjugate (HPLC). The format is biochemical, Fusarium oxysporum. The procedure:
The ability of the antibody-PVA conjugate, L6-PVA, to convert the novel prodrug, APO, to adriamycin was measured as follows: either a) PVA alone (final concentration:50 µg/ml), b) 100 µg/ml of the L6-PVA conjugate (final PVA concentration: 25 µg/ml) or c) 10 µg/ml of L6-PVA (final PVA concentration: 2.5 µg/ml) were added to a solution of APO (0.1 mM) in PBS. Each reaction was monitored by HPLC using a Phenominex C-18 column (3 µm, 4.5 x 100 mm) and a gradient elution of 20-60% tetrahydrofuran in water with 0.1% H3PO4 (1.0 ml/min, monitored at 495 nm). Under these conditions, the adriamycin eluted at 8.9 minutes and the APO eluted at 12.2 minutes.

For data set [5], the system named is H2981 tumor cells. The experiment in a line: 3H-thymidine uptake assay on H2981 cells, PVA conjugates with APO. The format is cell-based. Conditions: Homo sapiens; H2981 cells untreated with any conjugate. The procedure: The in vitro cytotoxic effect of the antibody-PVA/ adriamycin prodrug combination of the invention toward H2981 tumor cells was measured using the ^3H-thymidine uptake assay described in Examples 1 and 2 above. Briefly, the H2981 tumor cells were plated into 96-well microtiter plates in IMDM (10,000 cells/well) and were allowed to attached for 18 h at 37°C. The antibody-PVA conjugates, L6-PVA or 1F5-PVA, were then added at a concentration of 10 µg/ml of antibody and the plates were incubated for 30 min at 4°C. The wells were then washed four times with IMDM and APO was added at varying concentrations in IMDM. After two h, the wells were again washed, IMDM was added and the cells were left for 18 h at 37°C. At that point, ^3H-thymidine was added (1 µCi per well) and after 6 h, the plates were frozen at -70°C to detach the cells. After thawing, the cells were harvested onto glass fiber filters. The incorporation of ^3H-thymidine was measured in a Beckman 3801 scintillation counter and compared to cells treated with APO or adriamycin (ADM) alone.

Data set [6] can be described thus: Relative toxicities of MOH and MOP in mice. Also noted: species or system Balb C nu/nu mice. Particulars: mouse, in vivo, ip. The procedure:
Prior to investigating the in vivo antitumor activity of MOP in combination with the L6-AP conjugate the relative toxicities of the prodrug and its released active derivative, MOH, were determined in Balb C nu/nu mice. […] Total amounts of up to 40 mg/kg of MOH and 100 mg/kg of MOP were well tolerated if given in 4 equal doses over a 25 day period.

The next data set relates to H2981 tumor. Nature of the data set: In vivo antitumor effect, conjugate/mitomycin prodrug and MOP/EP combinations, s.c. H2981 tumor. Details: species or system nude Balb C nu/nu female mice. The procedure: Therapy studies were then performed on nude Balb C nu/nu female mice (6 mice per treatment group) (4-6 wk old) obtained from Life Sciences (St. Petersburg, Fla.) that had been implanted (s.c., right hind flank) with a H2981 tumor obtained from in vivo sourcing. The experiments were run when the tumors reached approximately 100 mm^3 in volume. The L6-AP and 1F5-AP conjugates (0.1 ml containing 250 µg antibody in PBS) were each administered (i.p.) 18-24 h prior to treatment with MOP (0.2 ml containing 0.6 mg MOP in H2O). Tumor growth was compared to that observed in untreated mice and in mice treated with maximum tolerated doses of MOP (0.2 ml containing 0.6 mg MOP in H2O) or MOH (0.2 ml containing 0.2 mg MOH in H2O) alone.
The prodrugs, EP and MOP, were prepared as described in Examples 1 and 2, respectively. Preparation of the L6-AP and 1F5-AP immunoconjugates is described in Example 1. The in vivo studies on nude mice were carried out as described in Examples 1 and 2 above. Thus, nude mice that had been implanted with a H2981 tumor were pre-exposed to the L6-AP or 1F5-AP conjugate 18-24 h prior to treatment with a combination of MOP/EP (0.2 ml containing 1 mg EP and 0.3 mg MOP in H2O). Tumor growth was compared to that observed in untreated mice and in mice treated with the MOP/EP combination alone.

Data set [7] deals with H2981 tumor cells. The experiment in a line: cells. Particulars: Homo sapiens.

Read-outs that look alike come from different tables or passages of the source. Some results are limits rather than exact numbers.

The term IC50 denotes the concentration that gives 50% inhibition. Turning to `CO[C@@]12[C@H](COC(N)=O)C3=C(C(=O)C(C)=C(N)C3=O)N1C[C@@H]1N[C@@H]12` [MMC, mitomycin C, reference compound], in the data set on H2981 tumor cells [1], the IC50 is approximately 1000 nM.

By inhibition is commonly meant how much of the control response was suppressed. With `COc1cc(C2c3cc4c(cc3C(OC3OC5COC(C)OC5C(O)C3O)C3COC(=O)C23)OCO4)cc(OC)c1OP(=O)(O)O` (stereo not shown) [EP, 4'-disodium phosphate ester of etoposide], in data set [2] (4°C), the “stability of aqueous solutions” value is listed as “several days”. Moreover, in [2] (room temperature), the “stability of aqueous solutions” value is listed as “at least 8 hours”. In the data set on H3347 tumor cells [3], half-maximal inhibition (IC50) was put at 5800 nM. This compound also had an inhibition at 100 µM in the data set on H3347 tumor cells [4] (Homo sapiens, at 100 µM) of 35%. For the same compound, in the data set with H3347 tumors, the “antitumor effect on tumor growth” value is given as “greater antitumor effect than seen with etoposide itself”, the “tolerability in the animals” value is given as “less toxic to the animals”, the RESPONSE complete was 0 and the RESPONSE partial was found to be 0. Besides, in the data set on H3347 tumors, the RESPONSE progression is recorded as 6 and the RESPONSE stable turned out to be 10. In addition, the kill with H2981 tumor cells [1] (human, h2981 cells, 30 µM) came to 20%. Also, in the data set on Alkaline phosphatase, the “hydrolysis by alkaline phosphatase, relative rate” value is reported as “hydrolyzed by the enzyme more rapidly than the etoposide thiophosphate prodrug”. Besides, the “phosphate hydrolysis in the absence of enzyme” value in the data set on Alkaline phosphatase (Tris buffer pH 7.0, no enzyme) is recorded as “no phosphate hydrolysis occurred”. Also, the “hydrolysis of the etoposide-4'-phosphate to etoposide” value with Alkaline phosphatase (within 5 min of the start, AP free or as L6-AP conjugate, final AP concentration 5 µg/ml, prodrug 0.1 mM, pH 7.0) was “at least 85 X”.

Turning to `COc1cccc2c1C(=O)c1c(O)c3c(c(O)c1C2=O)C[C@@](O)(C(=O)CO)C[C@@H]3O[C@H]1C[C@H](NC(=O)COc2ccc(O)cc2)[C@H](O)[C@H](C)O1` [APO, N-(p-hydroxyphenoxyacetyl)adriamycin], the “time to effect this level of hydrolysis (at least 80%)” value in the data set with penicillin V amidase (L6-PVA conjugate at 10 µg/ml (2.5 µg/ml of PVA)) was 120 min. Besides, the “hydrolysis of APO to adriamycin” value in the data set with penicillin V amidase (within 40 minutes, PVA alone 50 µg/ml or L6-PVA conjugate 100 µg/ml) is “at least 80%”. Further, in the data set on H2981 tumor cells [5], the concentration for half-maximal inhibition (IC50) is 2000 nM.

A word on the LD50: it is the dose expected to kill half of the subjects tested. Regarding `CO[C@@]12[C@H](COC(N)=O)C3=C(C(=O)C(C)=C(NCCO)C3=O)N1C[C@@H]1N[C@@H]12` [MOH, 7-[(2-hydroxyethyl)amino]-9a-methoxymitosane, reference compound], in data set [6] (two equal doses spaced 4 days apart), the LD50 is 45 mg/kg. In addition, the MTD in data set [6] (given in 4 equal doses over a 25 day period, read-out: total amounts well tolerated) is not below 40 mg/kg. In the data set on H2981 tumor (Figures 18 and 19, conjugates 18-24 h prior to prodrug), the “antitumor activity in vivo” value was “significant antitumor activities in vivo”. In addition, in the data set on H2981 tumor (H2981 tumor, maximum tolerated doses), the “time required to reach an average tumor volume of 750 mm^3” value is reported as 45 days. The “TUMOR RESPONSES PROGRESSION” value in the data set with H2981 tumor (by day 63, mitomycin derivatives (Table 3)) is 6/6. For the same compound, the half-inhibitory concentration (IC50) in the data set on H2981 tumor cells [7] is approximately 1000 nM.

On to `COc1cc(C2c3cc4c(cc3C(OC3OC5COC(C)OC5C(O)C3O)C3COC(=O)C23)OCO4)cc(OC)c1OP(O)(O)=S` (stereo not shown) [etoposide thiophosphate, 4'-disodium thiophosphate ester of etoposide], for which the “stability of aqueous solutions” value in [2] (4°C) is reported as “several days”; in data set [2] (room temperature), “at least 8 hours”. Also, in the data set on Alkaline phosphatase, the “hydrolysis by alkaline phosphatase, relative rate” value is reported as “increased stability towards hydrolysis”.

As to `COc1cc([C@@H]2c3cc4c(cc3[C@@H](O[C@@H]3O[C@@H]5CO[C@@H](C)O[C@H]5[C@H](O)[C@H]3O)[C@H]3COC(=O)[C@H]23)OCO4)cc(OC)c1O` [etoposide, reference compound], the IC50 with H3347 tumor cells [3] is 200 nM. Besides, the “toxicity relative to EP” value with H3347 tumor cells [4] is “more than 100 fold”. In the data set with H3347 tumor cells [4] (Homo sapiens, 6 h drug exposure), this compound gave a 50% inhibitory concentration (IC50) of 1000 nM. For the same compound, in the data set on H3347 tumors, the “antitumor effect on tumor growth” value is “very little effect on tumor growth”, the “tolerability in the animals” value is reported as “higher doses were not well tolerated”, the RESPONSE complete is on record as 0 and the RESPONSE partial is listed as 0. In addition, in the data set on H3347 tumors, the RESPONSE progression stood at 12 and the RESPONSE stable was 4. Also, the IC50 in the data set on H2981 tumor cells [7] was found to be 2000 nM.
